Biological target: Glycogen synthase kinase-3 beta (Homo sapiens, UniProt P49841)
Test: concentration-response blocking of human GSK3B – biochemical, luminescence, cell-free homogeneous, retest, dose response (AID 434954)

Chain of Glycogen synthase kinase-3 beta (P49841 whole entry): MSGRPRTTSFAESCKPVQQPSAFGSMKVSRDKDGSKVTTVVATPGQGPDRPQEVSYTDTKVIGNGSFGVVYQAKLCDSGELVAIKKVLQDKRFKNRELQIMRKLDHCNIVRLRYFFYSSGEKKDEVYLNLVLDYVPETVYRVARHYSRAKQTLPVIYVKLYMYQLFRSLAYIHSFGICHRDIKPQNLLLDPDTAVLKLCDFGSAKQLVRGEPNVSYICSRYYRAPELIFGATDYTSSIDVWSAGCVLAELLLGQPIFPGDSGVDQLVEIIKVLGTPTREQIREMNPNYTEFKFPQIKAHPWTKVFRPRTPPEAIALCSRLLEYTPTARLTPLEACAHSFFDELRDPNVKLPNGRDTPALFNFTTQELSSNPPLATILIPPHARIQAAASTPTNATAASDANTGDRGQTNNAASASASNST

| EC50 [µM] | SMILES |
| --- | --- |
| > 300 | CCC(=O)Nc1sc2c(c1C(N)=O)CCN(Cc1ccccc1)C2 |
| > 300 | COc1ccc2c(c1)-c1c(sn(-c3ccc(OC)c(OC)c3)c1=S)C(C)(C)N2 |
| > 300 | O=C(Nc1ccccn1)c1ccc(C(=O)Nc2ccccn2)cc1 [SMR000502618] |
| > 300 | CCc1ccc(C=NNC(=O)c2nnn(-c3nonc3N)c2CN2CCc3ccccc32)cc1 [1-(4-amino-1,2,5-oxadiazol-3-yl)-5-(2,3-dihydroindol-1-ylmethyl)-N-[(4-ethylphenyl)methylideneamino]triazole-4-carboxamide] |
| > 300 | COc1cccc(CNS(=O)(=O)c2cc(CN3C(=O)c4cccnc4C3=O)ccc2OC)c1 [SMR000630004] |
| > 300 | CC(C)N(C(=O)Cc1ccccc1[N+](=O)[O-])C(C)C [SMR000291889] |
| 19.1 | COc1ccc(CNC(=O)CN(Cc2ccc(OC)cc2)C(=O)CCC(=O)Nc2nccs2)cc1 [MLS001222948] |
| 58.7 | O=NCc1cn(-c2ccccc2)nc1-c1ccc2c(c1)OCCO2 [N-[[3-(2,3-dihydro-1,4-benzodioxin-6-yl)-1-phenylpyrazol-4-yl]methylidene]hydroxylamine] |
| > 300 | COC(=O)c1ccc2nc(NC(=O)C3CC3)sc2c1 [2-(cyclopropanecarbonylamino)-1,3-benzothiazole-6-carboxylic acid methyl ester] |
| 122 | CC(=O)N1CCc2c(sc(NC(=O)CCS(=O)(=O)c3ccccc3)c2C(N)=O)C1 |
| > 300 | NC(=O)C1CCN(c2nc3c(S(=O)(=O)c4ccccc4)nnn3c3ccccc23)CC1 [SMR000629006] |
| > 300 | COc1ccc(OC)c(CCNC(=O)c2ccc3c(=O)[nH]c4c(C(=O)NC(C)C)sc(=S)n4c3c2)c1 |
| > 300 | CCOC(=O)C(C(=O)Nc1ccc(Cl)cc1Cl)C1=NC(C)(C)Cc2ccccc21 (stereo not drawn) |
| > 300 | CN(C)c1nc(N)c([N+](=O)[O-])c(NCCO)n1 |
| > 300 | COc1ccc(C(=O)c2coc3ccc(O)c(CN4CCCC4)c23)cc1 [[5-hydroxy-4-(1-pyrrolidinylmethyl)-3-benzofuranyl]-(4-methoxyphenyl)methanone] |
| > 300 | COc1ccc(-n2sc3c(c2=S)-c2cc(OC)ccc2NC3(C)C)cc1 |
| > 300 | Nc1nc(NCc2ccccc2)nc(Nc2ccc(F)cc2)c1[N+](=O)[O-] [2-N-benzyl-4-N-(4-fluorophenyl)-5-nitropyrimidine-2,4,6-triamine] |
| > 300 | O=c1oc2cc(O)ccc2cc1-c1ccccc1 [7-Hydroxy-3-phenyl-chromen-2-one] |
| > 300 | COc1ccc(OCCN(C)Cc2ccccc2)cc1 |
| 8.4 | Cc1cccc(Nc2nc(N)c([N+](=O)[O-])c(NCc3ccco3)n2)c1 [SMR000220105] |
| > 300 | COc1c(CC=C(C)C)cc([C@@H]2CC(=O)c3c(O)cc(O)cc3O2)cc1CC=C(C)C [abyssinone-V-4'-O-methyl ether] |
| > 300 | CC1CCN(c2oc(-c3ccccc3Cl)nc2C#N)CC1 [SMR000041709] |
| > 300 | CC(=O)Nc1ncc2c(n1)CC(c1ccco1)CC2=O (stereo not drawn) [N-(7-Furan-2-yl-5-oxo-5,6,7,8-tetrahydro-quinazolin-2-yl)-acetamide] |
| 16.9 | c1ccc(CN=Nc2nccc(-c3cccnc3)n2)cc1 |

| EC50 [µM] | SMILES |
| --- | --- |
| > 300 | Oc1ccc(CN=Nc2ncnc3nc[nH]c23)cc1 [SMR000320358] |
| > 300 | COc1ccc(Cl)cc1-c1nc(N)nc(N(C)C)n1 [MLS000698391] |
| > 300 | Cc1cc(OC(C)C)c2c(-c3ccccc3)cc(=O)oc2c1 [SMR000141385] |
| > 300 | Cc1ccc2c(CN3CCN(Cc4ccccc4)CC3)cc(=O)oc2c1C [SMR000543581] |
| 44.5 | Cc1ccc(-n2c(=O)c3c4c(sc3n3c(S)nnc23)CCC4)cc1 [SMR000419881] |
| 22 | c1ccc(Nc2nc(-c3ccncc3)nc3ccccc23)cc1 |
| > 300 | Cc1nnc2n(-c3ccccc3)c(=O)c3c4c(sc3n12)CC(C)CC4 (stereo not drawn) [MLS000030539] |
| > 300 | O=[N+]([O-])c1ccc(N2CCCCCC2)c([N+](=O)[O-])c1 [1-(2,4-Dinitro-phenyl)-azepane] |
| > 300 | CC(=O)C(Sc1ccc2nnc(-c3ccc(F)cc3)n2n1)C(C)=O [SMR000016797] |
| 77.5 | CCSc1ncnc2c(C#N)c3n(c12)CCCCC3 [4-ethylsulfanyl-7,8,9,10-tetrahydro-6H-pyrimido[3,4]pyrrolo[3,5-a]azepine-11-carbonitrile] |
| > 300 | COCCn1nnnc1C(c1cc2cc(C)ccc2[nH]c1=O)N1CCc2ccccc21 (stereo not drawn) [SMR000122998] |
| > 300 | CCOc1cc(C)cc2oc(=O)cc(-c3ccccc3)c12 [SMR000116517] |
| > 300 | COc1ccccc1CNC(=O)OCc1nccnc1C(=O)Nc1ccc(Br)cn1 [[3-[(5-bromopyridin-2-yl)carbamoyl]pyrazin-2-yl]methyl N-[(2-methoxyphenyl)methyl]carbamate] |
| > 300 | COc1cccc(NC(=O)NNS(=O)(=O)c2ccc(OC)cc2OC)c1 [SMR000679286] |
| > 300 | CCCCC(=O)Nc1nc2c(OC)cc([N+](=O)[O-])cc2s1 [SMR000363192] |
| > 300 | CCc1c(C(=O)Nc2ccccc2C(N)=O)csc1C [SMR000679541] |
| > 300 | COc1ccc2nc(C)cc(N3CCOCC3)c2c1 [4-(6-methoxy-2-methyl-4-quinolinyl)morpholine] |
| 4.54 | O=C(CCl)Oc1ccc2occ(C(=O)c3cccs3)c2c1 [SMR000121351] |
| > 300 | CCn1c(SCC(=O)Nc2ccccc2)nnc1C1CCCCC1 |
| 2.39 | CCC(C)Nc1nc(N)c([N+](=O)[O-])c(NC2CCCCC2)n1 (stereo not drawn) [SMR000540397] |
| > 300 | COc1ccccc1Nc1nc(N(C)c2ccccc2)nc(N)c1[N+](=O)[O-] [SMR000542836] |
| > 300 | COCCn1c(SCC(=O)NCc2ccc(F)cc2)nc2ccccc21 [N-[(4-fluorophenyl)methyl]-2-[1-(2-methoxyethyl)benzimidazol-2-yl]sulfanylacetamide] |
| 6.01 | Nc1nc(Nc2cccc(Cl)c2)nc(NCc2ccco2)c1[N+](=O)[O-] [MLS000333252] |
| > 300 | CC(C)Nc1nc(N=C(N)S)nc(NC(C)C)n1 |

| EC50 [µM] | SMILES |
| --- | --- |
| > 300 | COc1cccc(-c2nc(SCC(=O)Nc3nc(-c4ccccc4)c(C)s3)[nH]c(=O)c2C#N)c1 |
| > 300 | CN(C(=O)CSc1nnc(-c2c[nH]c3ccccc23)o1)C1CCS(=O)(=O)C1 (stereo not drawn) [N-(1,1-dioxothiolan-3-yl)-2-[[(2Z)-2-indol-3-ylidene-3H-1,3,4-oxadiazol-5-yl]sulfanyl]-N-methylacetamide] |
| > 300 | CCN(c1ccccc1)S(=O)(=O)c1cc(NC(=O)Nc2ccccc2C#N)ccc1Cl [MLS000395038] |
| > 300 | Cc1ccc(-n2c(C)nc3c(cnn3-c3ccc(F)cc3)c2=O)cc1C [SMR000026457] |
| > 300 | COC1=C/C(=C/c2c(N)n3cc(C)sc3nc2=O)C=CC1=O |
| > 300 | COc1ccc(OC)c(Nc2nc(N)c([N+](=O)[O-])c(NCc3ccccc3)n2)c1 [N2-(2,5-dimethoxyphenyl)-5-nitro-N4-(phenylmethyl)pyrimidine-2,4,6-triamine] |
| 65.6 | Nc1nonc1-n1nnc(C(=O)NN=Cc2ccccn2)c1-c1ccccc1 [1-(4-azanyl-1,2,5-oxadiazol-3-yl)-5-phenyl-N-(pyridin-2-ylmethylideneamino)-1,2,3-triazole-4-carboxamide] |
| 9.29 | N#CCCSc1nc(N2CCOCC2)c2c(c1C#N)CCCC2 [3-(2-cyanoethylthio)-1-(4-morpholinyl)-5,6,7,8-tetrahydroisoquinoline-4-carbonitrile] |
| > 300 | CCOC(=O)c1cnc2ccc(OC)cc2c1NCCN1CCOCC1 [SMR000518517] |
| > 300 | Cc1ccc(S(=O)(=O)N2CCN(CC(=O)NN=Cc3ccco3)CC2)cc1 [MLS000590873] |
| > 300 | CN1CCN(CCC2Oc3cc([N+](=O)[O-])ccc3NC2=O)CC1 (stereo not drawn) [SMR000336558] |
| > 300 | CCOC(=O)CNC(=O)CSc1ccc2nnc(-c3cccnc3)n2n1 [ethyl 2-[[2-[(3-pyridin-3-yl-[1,2,4]triazolo[4,3-b]pyridazin-6-yl)sulfanyl]acetyl]amino]acetate] |
| > 300 | COc1cccc2cc(CC(=O)c3ccccc3)c(=O)oc12 [8-methoxy-3-(2-oxo-2-phenylethyl)-2H-chromen-2-one] |
| 23.8 | CC(=O)Nc1cc(-c2ccc(Cl)cc2)n[nH]1 [N-[5-(4-chlorophenyl)-1H-pyrazol-3-yl]acetamide] |
| > 300 | CC1(C)CC(=O)C=C(Nc2ccc(F)cc2)C1 [MLS000070279] |
| > 300 | COc1ccc(S(=O)(=O)CC(=O)c2cc3cccc(C)c3oc2=O)cc1 [SMR000634140] |
| > 300 | Cc1ccc(NC2=CC(=O)CC(C)(C)C2)cc1C [3-(3,4-dimethylanilino)-5,5-dimethyl-1-cyclohex-2-enone] |
| > 300 | Cc1ccccc1CSc1nc2n(n1)C(c1cccs1)C1C(=O)CCCC1=N2 (stereo not drawn) [2-[(2-methylphenyl)methylsulfanyl]-9-thiophen-2-yl-5,6,7,9-tetrahydro-1H-[1,2,4]triazolo[5,1-b]quinazolin-8-one] |
| > 300 | O=C(NC1CCCCCC1)C1CCCN(S(=O)(=O)c2cccs2)C1 (stereo not drawn) [N-cycloheptyl-1-thiophen-2-ylsulfonylpiperidine-3-carboxamide] |
| > 300 | CCC(=O)n1nc(-c2ccc(OC)cc2)nc1N [MLS000043495] |
| > 300 | COC(CNC(=O)CCc1c(C)nc2c(c(C)nn2-c2ccc(C)cc2)c1C)OC [N-(2,2-dimethoxyethyl)-3-[3,4,6-trimethyl-1-(4-methylphenyl)pyrazolo[3,4-b]pyridin-5-yl]propanamide] |
| 0.358 | COc1ccc(C(=O)c2sc(Nc3ccccc3)nc2N)cc1OC [MLS001202046] |
| > 300 | Cc1ccc(N(c2ncnc(N)c2[N+](=O)[O-])C2CCCCC2)cc1 [N-cyclohexyl-N-(4-methylphenyl)-5-nitro-4,6-pyrimidinediamine] |
| > 300 | Cc1cc(NC(=O)CSc2ccc3nnc(-c4ccc(F)cc4)n3n2)no1 [2-{[3-(4-fluorophenyl)[1,2,4]triazolo[4,3-b]pyridazin-6-yl]thio}-N-(5-methylisoxazol-3-yl)acetamide] |

| SMILES | EC50 [µM] |
| --- | --- |
| Nc1ncnc2c1ccn2[C@@H]1O[C@H](CO)[C@@H](O)[C@H]1O ['2-(4-AMINO-PYRROLO[2,3-D]PYRIMIDIN-7-YL)-5-HYDROXYMETHYL-TETRAHYDRO-FURAN-3,4-DIOL] | > 300 |
